Publication PMC6789782, “Safety Pharmacological Evaluation of the Coffee Component, Caffeoylquinic Acid, and Its Metabolites, Using Ex Vivo and In Vitro Profiling Assays” (Pharmaceuticals, 2019)
Read-outs that look alike come from different tables or passages of the source.

Assays:
Test in all cases: In vitro profiling, binding assay
Opiate κ = Opiate κ (Homo sapiens, UniProt P41145)
Protocol: (§1) Binding and functional assays of CGAs with the proteins known to be pharmacological targets related to the CVS, CNS, and GI functions were conducted. […] In the binding assay, we measured the radiation activity of the solution containing filtered proteins that bound to the tested compound or high-affinity ligand, while in the functional assays, we measured the reaction product. The ability of the test compound to interact with the tested targets was measured as the inhibition of ligand binding to the target or reaction product production (% inhibition).

Opiate μ = Opiate μ (Homo sapiens, UniProt P35372)
Protocol: as §1

[1] = target: Transporter, Dopamine (DAT) (Homo sapiens, UniProt Q01959)
Protocol: as §1

Dopamine D2L = Dopamine D2L (Homo sapiens, UniProt P14416)
Protocol: as §1

hERG potassium channel = hERG potassium channel (Homo sapiens, UniProt Q12809)
Protocol: as §1

Muscarinic M3 = Muscarinic M3 (Homo sapiens, UniProt P20309)
Protocol: as §1

Adrenergic β2 = Adrenergic β2 (Homo sapiens, UniProt P07550)
Protocol: as §1

5-HT1B = 5-HT1B (Homo sapiens, UniProt P28222)
Protocol: as §1

Endothelin ETA = target: T1, Endothelin ETA (Homo sapiens, UniProt P25101)
T1 sequence (P25101 21-427): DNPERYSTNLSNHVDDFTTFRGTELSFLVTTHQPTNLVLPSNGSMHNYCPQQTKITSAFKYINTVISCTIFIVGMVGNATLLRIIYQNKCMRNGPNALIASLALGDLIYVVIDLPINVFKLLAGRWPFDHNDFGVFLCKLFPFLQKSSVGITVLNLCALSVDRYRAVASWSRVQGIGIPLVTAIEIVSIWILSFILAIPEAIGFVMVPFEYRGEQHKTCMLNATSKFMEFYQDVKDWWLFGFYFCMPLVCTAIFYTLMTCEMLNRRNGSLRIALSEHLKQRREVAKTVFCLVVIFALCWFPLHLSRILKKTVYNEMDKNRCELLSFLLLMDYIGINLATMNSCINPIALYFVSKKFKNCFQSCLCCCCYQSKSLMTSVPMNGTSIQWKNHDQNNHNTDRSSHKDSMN
Protocol: as §1

5-HT3 = target: T2, 5-HT3 (Homo sapiens, UniProt P46098)
T2 sequence (P46098 24-478): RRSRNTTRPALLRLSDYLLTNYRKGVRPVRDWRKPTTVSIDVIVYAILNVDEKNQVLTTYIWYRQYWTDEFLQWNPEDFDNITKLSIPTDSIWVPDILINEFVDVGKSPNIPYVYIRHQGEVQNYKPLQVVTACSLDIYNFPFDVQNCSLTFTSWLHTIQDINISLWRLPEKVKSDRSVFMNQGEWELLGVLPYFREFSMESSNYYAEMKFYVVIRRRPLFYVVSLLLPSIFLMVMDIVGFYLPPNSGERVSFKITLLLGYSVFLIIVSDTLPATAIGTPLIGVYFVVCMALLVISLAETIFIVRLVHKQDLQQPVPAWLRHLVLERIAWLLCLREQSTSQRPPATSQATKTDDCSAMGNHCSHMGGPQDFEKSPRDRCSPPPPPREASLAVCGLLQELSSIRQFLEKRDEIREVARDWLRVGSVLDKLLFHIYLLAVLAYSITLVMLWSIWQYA
Protocol: as §1

Muscarinic M2 = target: T3, Muscarinic M2 (Homo sapiens, UniProt P08172)
T3 sequence (P08172 1-466): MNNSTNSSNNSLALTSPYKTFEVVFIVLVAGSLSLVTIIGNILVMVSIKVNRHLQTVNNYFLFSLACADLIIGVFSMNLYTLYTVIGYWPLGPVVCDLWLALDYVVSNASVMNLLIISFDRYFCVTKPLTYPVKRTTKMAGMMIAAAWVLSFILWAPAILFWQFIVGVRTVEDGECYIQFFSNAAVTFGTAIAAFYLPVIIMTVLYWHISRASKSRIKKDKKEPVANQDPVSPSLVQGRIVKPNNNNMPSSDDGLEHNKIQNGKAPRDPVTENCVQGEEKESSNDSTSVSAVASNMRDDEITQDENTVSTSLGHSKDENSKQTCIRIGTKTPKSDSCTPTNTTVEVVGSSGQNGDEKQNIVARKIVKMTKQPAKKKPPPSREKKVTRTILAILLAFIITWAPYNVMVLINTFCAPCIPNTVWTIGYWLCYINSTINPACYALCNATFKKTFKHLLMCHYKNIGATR
Protocol: as §1

Adrenergic α2A = target: T4, Adrenergic α2A (Homo sapiens, UniProt P08913)
T4 sequence (P08913 1-465): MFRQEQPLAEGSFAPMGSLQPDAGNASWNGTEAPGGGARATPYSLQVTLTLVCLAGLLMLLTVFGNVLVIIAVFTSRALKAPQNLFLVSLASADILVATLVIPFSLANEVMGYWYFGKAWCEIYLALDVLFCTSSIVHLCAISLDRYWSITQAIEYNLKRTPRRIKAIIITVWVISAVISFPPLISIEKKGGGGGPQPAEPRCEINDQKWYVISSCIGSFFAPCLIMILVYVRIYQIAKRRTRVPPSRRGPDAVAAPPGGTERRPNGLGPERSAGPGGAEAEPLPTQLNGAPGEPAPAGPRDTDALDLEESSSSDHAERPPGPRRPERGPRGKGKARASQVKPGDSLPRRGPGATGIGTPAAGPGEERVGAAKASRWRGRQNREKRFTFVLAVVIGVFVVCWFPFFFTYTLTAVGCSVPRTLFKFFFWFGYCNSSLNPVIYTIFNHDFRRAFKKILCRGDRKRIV
Protocol: as §1

[2] = 30 µM, Opiate κ, read-out: % Inhibition
[3] = 30 µM, Opiate μ, read-out: % Inhibition
[4] = 30 µM, Transporter, Dopamine (DAT), read-out: % Inhibition
[5] = 30 µM, Dopamine D2L, read-out: % Inhibition
[6] = probe radioisotope-labeled high-affinity ligand (not named), 30 µM, Potassium Channel hERG, read-out: % Inhibition
[7] = 30 µM, Adrenergic β2, read-out: % Inhibition
[8] = 30 µM, 5-HT1B, read-out: % Inhibition
[9] = 30 µM, Endothelin ETA, read-out: % Inhibition
[10] = 30 µM, 5-HT3, read-out: % Inhibition
[11] = 30 µM, Muscarinic M2, read-out: % Inhibition
[12] = 30 µM, Adrenergic α2A, read-out: % Inhibition

Sequence of hERG potassium channel (Q12809 whole entry): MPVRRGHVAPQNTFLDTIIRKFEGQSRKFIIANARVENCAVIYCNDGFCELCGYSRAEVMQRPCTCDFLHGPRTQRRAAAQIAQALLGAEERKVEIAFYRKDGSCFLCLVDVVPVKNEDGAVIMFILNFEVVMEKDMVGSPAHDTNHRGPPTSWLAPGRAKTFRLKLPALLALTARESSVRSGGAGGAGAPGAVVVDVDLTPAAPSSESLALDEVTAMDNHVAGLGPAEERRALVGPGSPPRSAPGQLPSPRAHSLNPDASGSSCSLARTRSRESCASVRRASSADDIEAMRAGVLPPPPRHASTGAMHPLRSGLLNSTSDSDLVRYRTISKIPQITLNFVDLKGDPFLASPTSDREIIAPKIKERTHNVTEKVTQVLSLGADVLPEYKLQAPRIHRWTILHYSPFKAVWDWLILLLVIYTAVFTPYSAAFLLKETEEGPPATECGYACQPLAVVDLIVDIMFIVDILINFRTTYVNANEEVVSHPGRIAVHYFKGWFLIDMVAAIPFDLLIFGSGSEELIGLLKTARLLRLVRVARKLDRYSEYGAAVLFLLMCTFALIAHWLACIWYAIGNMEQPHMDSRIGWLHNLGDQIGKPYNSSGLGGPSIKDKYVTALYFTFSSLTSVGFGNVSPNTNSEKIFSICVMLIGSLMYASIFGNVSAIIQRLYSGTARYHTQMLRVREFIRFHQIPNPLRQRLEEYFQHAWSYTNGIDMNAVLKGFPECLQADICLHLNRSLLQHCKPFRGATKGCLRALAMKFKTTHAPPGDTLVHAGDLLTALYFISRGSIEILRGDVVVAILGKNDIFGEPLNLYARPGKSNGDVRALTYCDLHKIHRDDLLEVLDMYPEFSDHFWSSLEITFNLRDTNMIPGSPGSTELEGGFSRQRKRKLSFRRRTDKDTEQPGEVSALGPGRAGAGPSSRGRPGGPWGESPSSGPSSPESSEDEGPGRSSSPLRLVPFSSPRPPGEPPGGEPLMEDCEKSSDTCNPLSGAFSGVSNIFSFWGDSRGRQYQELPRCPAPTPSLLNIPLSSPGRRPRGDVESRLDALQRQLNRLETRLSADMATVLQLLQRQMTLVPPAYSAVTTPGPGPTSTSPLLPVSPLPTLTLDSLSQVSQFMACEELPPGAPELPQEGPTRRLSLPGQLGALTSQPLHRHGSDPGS
Sequence of Dopamine D2L (P14416 whole entry): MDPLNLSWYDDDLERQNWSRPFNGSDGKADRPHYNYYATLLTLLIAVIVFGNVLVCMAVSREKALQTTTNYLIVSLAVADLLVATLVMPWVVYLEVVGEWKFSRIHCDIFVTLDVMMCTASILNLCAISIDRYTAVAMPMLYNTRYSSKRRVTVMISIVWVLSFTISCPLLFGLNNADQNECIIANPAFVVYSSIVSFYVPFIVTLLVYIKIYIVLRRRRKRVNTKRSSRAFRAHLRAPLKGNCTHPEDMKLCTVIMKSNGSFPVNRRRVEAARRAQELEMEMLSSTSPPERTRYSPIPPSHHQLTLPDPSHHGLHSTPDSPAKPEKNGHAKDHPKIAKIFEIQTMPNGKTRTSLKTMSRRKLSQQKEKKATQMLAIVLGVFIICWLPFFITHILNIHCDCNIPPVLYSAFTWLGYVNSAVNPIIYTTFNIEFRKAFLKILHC
Sequence of Opiate κ (P41145 whole entry): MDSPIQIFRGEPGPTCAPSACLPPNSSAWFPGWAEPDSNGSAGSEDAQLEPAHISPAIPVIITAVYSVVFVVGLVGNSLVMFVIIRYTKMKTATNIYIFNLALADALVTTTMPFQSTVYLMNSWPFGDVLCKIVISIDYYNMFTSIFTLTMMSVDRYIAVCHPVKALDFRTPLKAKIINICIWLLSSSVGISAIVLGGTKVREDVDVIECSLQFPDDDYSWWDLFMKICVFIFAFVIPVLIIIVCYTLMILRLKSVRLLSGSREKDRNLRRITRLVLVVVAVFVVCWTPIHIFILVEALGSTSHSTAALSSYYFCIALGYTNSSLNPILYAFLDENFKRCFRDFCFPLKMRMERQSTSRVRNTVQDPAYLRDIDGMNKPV
Sequence of Adrenergic β2 (P07550 whole entry): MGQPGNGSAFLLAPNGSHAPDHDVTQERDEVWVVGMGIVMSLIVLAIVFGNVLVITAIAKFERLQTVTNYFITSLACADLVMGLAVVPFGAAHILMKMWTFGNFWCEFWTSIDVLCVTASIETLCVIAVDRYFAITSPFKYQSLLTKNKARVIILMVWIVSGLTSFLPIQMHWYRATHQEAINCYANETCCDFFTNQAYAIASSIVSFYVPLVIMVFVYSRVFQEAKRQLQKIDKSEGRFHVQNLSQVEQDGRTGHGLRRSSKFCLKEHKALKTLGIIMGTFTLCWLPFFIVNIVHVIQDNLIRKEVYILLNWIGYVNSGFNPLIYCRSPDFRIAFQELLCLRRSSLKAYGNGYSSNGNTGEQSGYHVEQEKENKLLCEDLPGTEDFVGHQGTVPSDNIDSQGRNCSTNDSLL
Sequence of Opiate μ (P35372 whole entry): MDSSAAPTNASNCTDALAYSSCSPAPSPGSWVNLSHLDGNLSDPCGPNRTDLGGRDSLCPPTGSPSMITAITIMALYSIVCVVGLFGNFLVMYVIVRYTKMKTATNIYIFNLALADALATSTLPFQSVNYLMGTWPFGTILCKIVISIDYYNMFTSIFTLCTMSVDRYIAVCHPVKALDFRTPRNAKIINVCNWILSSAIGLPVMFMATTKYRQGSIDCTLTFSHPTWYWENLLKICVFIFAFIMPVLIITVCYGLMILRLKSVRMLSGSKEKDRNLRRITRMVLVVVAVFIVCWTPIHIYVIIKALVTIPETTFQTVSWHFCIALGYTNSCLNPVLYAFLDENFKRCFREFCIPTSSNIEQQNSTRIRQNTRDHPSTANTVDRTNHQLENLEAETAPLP
Sequence of 5-HT1B (P28222 whole entry): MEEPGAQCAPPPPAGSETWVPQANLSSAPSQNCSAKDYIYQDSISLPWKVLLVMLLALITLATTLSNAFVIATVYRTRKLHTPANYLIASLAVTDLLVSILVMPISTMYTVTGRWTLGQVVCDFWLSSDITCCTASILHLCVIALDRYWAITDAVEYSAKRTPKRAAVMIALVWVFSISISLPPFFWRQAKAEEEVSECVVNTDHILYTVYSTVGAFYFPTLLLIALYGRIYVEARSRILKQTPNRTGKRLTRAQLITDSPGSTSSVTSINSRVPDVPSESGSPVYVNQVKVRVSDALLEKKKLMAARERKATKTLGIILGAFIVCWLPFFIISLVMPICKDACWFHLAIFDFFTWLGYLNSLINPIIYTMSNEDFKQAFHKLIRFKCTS
Sequence of Muscarinic M3 (P20309 whole entry): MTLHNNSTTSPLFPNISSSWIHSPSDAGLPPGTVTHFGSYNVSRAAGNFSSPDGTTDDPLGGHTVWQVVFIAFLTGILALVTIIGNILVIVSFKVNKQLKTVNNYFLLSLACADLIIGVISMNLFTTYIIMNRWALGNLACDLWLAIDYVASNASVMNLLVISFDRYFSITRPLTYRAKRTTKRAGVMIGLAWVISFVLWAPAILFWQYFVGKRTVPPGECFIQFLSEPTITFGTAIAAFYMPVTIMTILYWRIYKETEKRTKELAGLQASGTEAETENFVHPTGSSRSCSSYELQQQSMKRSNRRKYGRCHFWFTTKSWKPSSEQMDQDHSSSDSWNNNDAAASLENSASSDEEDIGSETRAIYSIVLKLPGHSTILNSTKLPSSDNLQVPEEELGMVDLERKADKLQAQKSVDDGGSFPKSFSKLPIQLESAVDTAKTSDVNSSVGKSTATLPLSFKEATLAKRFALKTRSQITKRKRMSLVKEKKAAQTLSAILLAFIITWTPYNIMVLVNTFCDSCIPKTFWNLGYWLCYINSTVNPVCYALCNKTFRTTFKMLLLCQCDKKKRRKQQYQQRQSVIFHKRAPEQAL
Sequence of Transporter, Dopamine (DAT) (Q01959 whole entry): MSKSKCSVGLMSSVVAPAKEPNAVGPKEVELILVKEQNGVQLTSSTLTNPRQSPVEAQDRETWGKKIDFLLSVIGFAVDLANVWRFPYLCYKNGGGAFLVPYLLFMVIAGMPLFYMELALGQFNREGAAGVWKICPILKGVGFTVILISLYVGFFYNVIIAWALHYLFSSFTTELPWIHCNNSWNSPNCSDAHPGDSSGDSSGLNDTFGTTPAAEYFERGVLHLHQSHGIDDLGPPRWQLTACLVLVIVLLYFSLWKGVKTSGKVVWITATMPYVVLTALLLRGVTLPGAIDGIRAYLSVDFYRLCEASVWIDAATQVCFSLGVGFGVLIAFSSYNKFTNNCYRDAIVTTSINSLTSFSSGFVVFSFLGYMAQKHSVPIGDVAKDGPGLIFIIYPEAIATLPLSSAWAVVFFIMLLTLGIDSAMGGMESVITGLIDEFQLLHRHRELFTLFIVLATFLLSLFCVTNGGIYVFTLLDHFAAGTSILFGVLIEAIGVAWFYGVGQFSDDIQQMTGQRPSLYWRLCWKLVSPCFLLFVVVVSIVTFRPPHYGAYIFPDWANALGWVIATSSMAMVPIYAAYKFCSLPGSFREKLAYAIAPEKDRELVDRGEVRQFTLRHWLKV

Question: `O=C(O)/C=C/c1ccc(O)c(O)c1` [CA, caffeic acid] was tested. Which “% Inhibition” value (Opiate κ; 30 µM, Opiate κ) did it give?
Answer: Its value is 3%.

Question: What about the “% Inhibition” value (Opiate μ; 30 µM, Opiate μ) of the same compound?
Answer: Its value is −6%.

Question: What about the “% Inhibition” value ([1]; 30 µM, Transporter, Dopamine (DAT)) of the same compound?
Answer: Its value is 2%.

Question: What about the inhibition at 30 µM (Dopamine D2L) of the same compound?
Answer: Its inhibition at 30 µM is 16%.

Question: What about the inhibition at 30 µM (hERG potassium channel) of the same compound?
Answer: The inhibition at 30 µM was -19%.

Question: And the “% Inhibition” value (Muscarinic M3; 30 µM)?
Answer: The value was −3%.

Question: What about the “% Inhibition” value (Adrenergic β2; 30 µM, Adrenergic β2) of the same compound?
Answer: Its value is 2%.

Question: What about the “% Inhibition” value (5-HT1B; 30 µM, 5-HT1B) of the same compound?
Answer: Its value is 3%.

Question: And the “% Inhibition” value (Endothelin ETA; 30 µM, Endothelin ETA)?
Answer: Its value is 4%.

Question: What about the “% Inhibition” value (5-HT3; 30 µM, 5-HT3) of the same compound?
Answer: Its value is −5%.

Question: What about the “% Inhibition” value (Muscarinic M2; 30 µM, Muscarinic M2) of the same compound?
Answer: Its value is 23%.

Question: And the “% Inhibition” value (Adrenergic α2A; 30 µM, Adrenergic α2A)?
Answer: Its value is −4%.

Question: What does the source list for `COc1cc(/C=C/C(=O)O[C@H]2C[C@@](O)(C(=O)O)C[C@H](O)[C@@H]2O)ccc1O` [5-FQA, 5-O-feruloylquinic acid]?
Answer: inhibition at 30 µM (Opiate κ; [2]): -7%; inhibition at 30 µM (Opiate μ; [3]): 5%; inhibition at 30 µM [1, 4]: 6%; inhibition at 30 µM (Dopamine D2L; [5]): -8%; inhibition at 30 µM (hERG potassium channel; [6]): 6%; inhibition at 30 µM (Muscarinic M3): 2%; inhibition at 30 µM (Adrenergic β2; [7]): 6%; inhibition at 30 µM (5-HT1B; [8]): -10%; inhibition at 30 µM (Endothelin ETA; [9]): 1%; inhibition at 30 µM (5-HT3; [10]): -3%; inhibition at 30 µM (Muscarinic M2; [11]): 7%; inhibition at 30 µM (Adrenergic α2A; [12]): -3%

Question: Which inhibition at 30 µM (Opiate κ; [2]) does the source give for `O=C(/C=C/c1ccc(O)c(O)c1)O[C@H]1C[C@@](O)(C(=O)O)C[C@H](O)[C@@H]1O` [5-CQA, 5-O-caffeoylquinic acid] here?
Answer: The inhibition at 30 µM was -3%.

Question: What about the inhibition at 30 µM (Opiate μ; [3]) of the same compound?
Answer: The inhibition at 30 µM was 8%.

Question: What about the inhibition at 30 µM [1, 4] of the same compound?
Answer: The inhibition at 30 µM was -10%.

Question: What about the inhibition at 30 µM (Dopamine D2L; [5]) of the same compound?
Answer: Its inhibition at 30 µM is 7%.

Question: What about the inhibition at 30 µM (hERG potassium channel; [6]) of the same compound?
Answer: Its inhibition at 30 µM is 3%.

Question: What about the inhibition at 30 µM (Muscarinic M3) of the same compound?
Answer: Its inhibition at 30 µM is 5%.

Question: What about the inhibition at 30 µM (Adrenergic β2; [7]) of the same compound?
Answer: Its inhibition at 30 µM is 1%.

Question: And the inhibition at 30 µM (5-HT1B; [8])?
Answer: Its inhibition at 30 µM is -1%.

Question: What about the inhibition at 30 µM (Endothelin ETA; [9]) of the same compound?
Answer: Its inhibition at 30 µM is 3%.

Question: And the inhibition at 30 µM (5-HT3; [10])?
Answer: The inhibition at 30 µM was -9%.

Question: And the inhibition at 30 µM (Muscarinic M2; [11])?
Answer: Its inhibition at 30 µM is -1%.

Question: What about the inhibition at 30 µM (Adrenergic α2A; [12]) of the same compound?
Answer: Its inhibition at 30 µM is 5%.

Question: For `COc1cc(/C=C/C(=O)O)ccc1O` [FA, ferulic acid], which inhibition at 30 µM (Opiate κ) is on record?
Answer: The inhibition at 30 µM was 3%.

Question: What about the inhibition at 30 µM (Opiate μ) of the same compound?
Answer: Its inhibition at 30 µM is 4%.

Question: What about the inhibition at 30 µM [1] of the same compound?
Answer: Its inhibition at 30 µM is 0%.

Question: And the inhibition at 30 µM (Dopamine D2L)?
Answer: The inhibition at 30 µM was 9%.

Question: And the inhibition at 30 µM (hERG potassium channel; 30 µM, Potassium Channel hERG, read-out: % Inhibition)?
Answer: The inhibition at 30 µM was 7%.

Question: What about the inhibition at 30 µM (Adrenergic β2) of the same compound?
Answer: Its inhibition at 30 µM is 2%.

Question: What about the inhibition at 30 µM (5-HT1B) of the same compound?
Answer: Its inhibition at 30 µM is 4%.

Question: What about the inhibition at 30 µM (Endothelin ETA) of the same compound?
Answer: The inhibition at 30 µM was 1%.

Question: What about the inhibition at 30 µM (5-HT3) of the same compound?
Answer: Its inhibition at 30 µM is -13%.

Question: What about the inhibition at 30 µM (Muscarinic M2) of the same compound?
Answer: The inhibition at 30 µM was 17%.

Question: And the inhibition at 30 µM (Adrenergic α2A)?
Answer: Its inhibition at 30 µM is -2%.
